Reference: US20110183969A1, “ANTIFUNGAL COMBINATION THERAPY” (priority 2008, published 2011)
In brackets after ≈: the same amount, converted by molar mass.

Assays:
Assay in all cases: MIC (YAG medium)
Format in all cases: cell-based
Aspergillus niger = conditions: Aspergillus niger; YAG medium; MIC banded into grades; read-out: MIC A. niger (grade)
Summary of the method: (§1)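 Spores grown on Sabouraud agar and diluted in YAG medium (1% glucose, 1% ammonium chloride, 0.5% yeast extract) to final inocula of 1-2×10^4 cfu/mL over a 50-0.05 mg/L drug range. Read by OD485 after 24 hrs at 35° C. MIC (mg/L) is the lowest concentration inhibiting growth >70% versus drug-free control.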

Aspergillus flavus = conditions: Aspergillus flavus; YAG medium; MIC banded into grades; read-out: MIC A. flavus (grade)
Summary of the method: as §1

[1] = tested on: Aspergillus fumigatus AF210; conditions: Aspergillus fumigatus; YAG medium; MIC banded into grades; AF210; read-out: MIC A. fumigatus 210 (grade)
Summary of the method: as §1

[2] = tested on: Aspergillus fumigatus AF293; conditions: Aspergillus fumigatus; YAG medium; MIC banded into grades; AF293; read-out: MIC A. fumigatus (grade)
Summary of the method: as §1

Aspergillus terreus AT49 = conditions: Aspergillus terreus; YAG medium; MIC banded into grades; AT49; read-out: MIC A. terreus 49 (grade)
Summary of the method: as §1

Aspergillus terreus AT4 = conditions: Aspergillus terreus; YAG medium; MIC banded into grades; AT4; read-out: MIC A. terreus (grade)
Summary of the method: as §1

Compound	MIC (Aspergillus niger) [µg/mL]	MIC (Aspergillus flavus) [µg/mL]	MIC [1] [µg/mL]	MIC [2] [µg/mL]	MIC (Aspergillus terreus AT49) [µg/mL]	MIC (Aspergillus terreus AT4) [µg/mL]
CC(C)(C)CN1CCN(c2ccc(NC(=O)C(=O)c3c(-c4ccccc4)cc4ccccn34)nc2)CC1 [Example 50, N-{5-[4-(2,2-Dimethyl-propyl)-piperazin-1-yl]-pyridin-2-yl}-2-oxo-2-(2-phenyl-indolizin-3-yl)-acetamide]	< 1	< 1	< 1	< 1	< 1	< 1
O=C(Nc1ccc(N2CCN(S(=O)(=O)c3cccnc3)CC2)cc1)C(=O)c1c(-c2ccccc2)cc2ccccn12 [Example 51, 2-Oxo-2-(2-phenyl-indolizin-3-yl)-N-{4-[4-(pyridine-3-sulfonyl)-piperazin-1-yl]-phenyl}-acetamide]	< 1	< 1	< 1	< 1	< 1	< 1
O=C(Nc1ccc(N2CCN(CC3CCOCC3)CC2)cc1)C(=O)c1c(-c2ccccc2)cc2ccc(F)cn12 [Example 53, 2-(6-Fluoro-2-phenyl-indolizin-3-yl)-2-oxo-N-{4-[4-(tetrahydro-pyran-4-ylmethyl)-piperazin-1-yl]-phenyl}-acetamide]	> 10	1 to 10 (≈ 1.85 to 18.5 µM)	1 to 10 (≈ 1.85 to 18.5 µM)	1 to 10 (≈ 1.85 to 18.5 µM)	1 to 10 (≈ 1.85 to 18.5 µM)	1 to 10 (≈ 1.85 to 18.5 µM)
Cc1cc(C)nc(N(C)CCN(C)c2ccc(NC(=O)C(=O)c3c(-c4ccccc4)cc4ccccn34)cc2)c1 [Example 55, N-[4-({2-[(4,6-Dimethyl-pyridin-2-yl)-methyl-amino]-ethyl}-methyl-amino)-phenyl]-2-oxo-2-(2-phenyl-indolizin-3-yl)-acetamide]	< 1	< 1	< 1	< 1	< 1	< 1
O=C(Nc1ccc(N2CCN(c3ccc(CN4CCOCC4)cc3)CC2)cc1)C(=O)c1c(-c2ccccc2)cc2ccccn12 [Example 56, N-{4-[4-(4-Morpholin-4-ylmethyl-phenyl)-piperazin-1-yl]-phenyl}-2-oxo-2-(2-phenyl-indolizin-3-yl)-acetamide]	< 1	< 1	< 1	< 1	< 1	< 1
COCCOc1cc(C)nc(N2CCN(c3ccc(NC(=O)C(=O)c4c(-c5ccccc5)cc5ccccn45)cc3)CC2)c1 [Example 57, N-(4-{4-[4-(2-Methoxy-ethoxy)-6-methyl-pyridin-2-yl]-piperazin-1-yl}-phenyl)-2-oxo-2-(2-phenyl-indolizin-3-yl)-acetamide]	< 1	< 1	< 1	< 1	< 1	< 1
Cc1cc(C)nc(OCCOc2ccc(NC(=O)C(=O)c3c(-c4ccccc4)cc4ccccn34)cc2)c1 [Example 65, N-{4-[2-(4,6-Dimethyl-pyridin-2-yloxy)-ethoxy]-phenyl}-2-oxo-2-(2-phenyl-indolizin-3-yl)-acetamide]	< 1	< 1	< 1	< 1	< 1	< 1
Cc1cc(C)nc(N(C)CCCN(C)c2ccc(NC(=O)C(=O)c3c(-c4ccccc4)cc4ccccn34)cc2)c1 [Example 67, N-[4-({3-[(4,6-dimethyl-pyridin-2-yl)-methyl-amino]-propyl}-methyl-amino)-phenyl]-2-oxo-2-(2-phenyl-indolizin-3-yl)-acetamide]	< 1	< 1	< 1	< 1	< 1	< 1
COCCN(C)c1ccc(N2CCN(c3ccc(NC(=O)C(=O)c4c(-c5ccccc5)cc5ccccn45)cc3)CC2)cn1 [Example 68, N-[4-(4-{6-[(2-Methoxy-ethyl)-methyl-amino]-pyridin-3-yl}-piperazin-1-yl)-phenyl]-2-oxo-2-(2-phenyl-indolizin-3-yl)-acetamide]	< 1	< 1	< 1	< 1	< 1	< 1

The next lines start with the values.

MIC (Aspergillus niger) [µg/mL]	MIC (Aspergillus flavus) [µg/mL]	MIC [1] [µg/mL]	MIC [2] [µg/mL]	MIC (Aspergillus terreus AT49) [µg/mL]	MIC (Aspergillus terreus AT4) [µg/mL]	Compound
< 1	< 1	< 1	< 1	< 1	< 1	Cc1ccnc(N2CCN(c3ccc(NC(=O)C(=O)c4c(-c5ccccc5)cc5ccccn45)cc3)CC2)c1 [Example 49, N-{4-[4-(4-Methyl-pyridin-2-yl)-piperazin-1-yl]-phenyl}-2-oxo-2-(2-phenyl-indolizin-3-yl)-acetamide]
> 10	> 10	> 10	> 10	> 10	> 10	Cc1cc(N2CCN(c3ccc(NC(=O)C(=O)c4c(-c5ccccc5)cc5ccccn45)cc3)CC2)cc(C)n1 [Example 52, N-{4-[4-(2,6-Dimethyl-pyridin-4-yl)-piperazin-1-yl]-phenyl}-2-oxo-2-(2-phenyl-indolizin-3-yl)-acetamide]
< 1	< 1	< 1	< 1	< 1	< 1	Cc1cc(C)nc(N2CCCN(c3ccc(NC(=O)C(=O)c4c(-c5ccccc5)cc5ccccn45)cc3)CC2)c1 [Example 54, N-{4-[4-(4,6-Dimethyl-pyridin-2-yl)-[1,4]diazepan-1-yl]-phenyl}-2-oxo-2-(2-phenyl-indolizin-3-yl)-acetamide]
< 1	< 1	< 1	< 1	< 1	< 1	Cc1cc(C)nc(N2CCN(c3ccc(NC(=O)C(=O)c4c(C5CC5)cc5ccccn45)cc3)CC2)c1 [Example 58, 2-(2-Cyclopropyl-indolizin-3-yl)-N-{4-[4-(4,6-dimethyl-pyridin-2-yl)-piperazin-1-yl]-phenyl}-2-oxo-acetamide]
< 1	< 1	< 1	< 1	< 1	< 1	O=C(Nc1ccc(N2CCN(c3cccnc3)CC2)cc1)C(=O)c1c(-c2ccccc2)cc2ccccn12 [Example 59, 2-Oxo-2-(2-phenyl-indolizin-3-yl)-N-[4-(4-pyridin-3-yl-piperazin-1-yl)-phenyl]-acetamide]
< 1	< 1	< 1	< 1	< 1	< 1	Cc1cc(C)nc(N2CCN(c3ccc(NC(=O)C(=O)c4c(C5CCCCC5)cc5ccccn45)cc3)CC2)c1 [Example 60, 2-(2-Cyclohexyl-indolizin-3-yl)-N-{4-[4-(4,6-dimethyl-pyridin-2-yl)-piperazin-1-yl]-phenyl}-2-oxo-acetamide]
< 1	< 1	< 1	< 1	< 1	< 1	Cc1cc(C)nc(N2CCN(c3ccc(NC(=O)C(=O)c4c(C(C)C)cc5ccccn45)cc3)CC2)c1 [Example 61, N-{4-[4-(4,6-Dimethyl-pyridin-2-yl)-piperazin-1-yl]-phenyl}-2-(2-isopropyl-indolizin-3-yl)-2-oxo-acetamide]
> 10	> 10	> 10	> 10	> 10	1 to 10 (≈ 1.96 to 19.6 µM)	Cc1cc(C)nc(N2CCN(c3ccc(NC(=O)C(=O)c4c(C(C)(C)C)cc5ccccn45)cc3)CC2)c1 [Example 62, 2-(2-tert-Butyl-indolizin-3-yl)-N-{4-[4-(4,6-dimethyl-pyridin-2-yl)-piperazin-1-yl]-phenyl}-2-oxo-acetamide]
> 10	> 10	> 10	> 10	> 10	> 10	Cc1cc(C)nc(N2CCN(c3ccc(NC(=O)C(=O)c4c(C5CCN(C)CC5)cc5ccccn45)cc3)CC2)c1 [Example 63, N-{4-[4-(4,6-Dimethyl-pyridin-2-yl)-piperazin-1-yl]-phenyl}-2-[2-(1-methyl-piperidin-4-yl)-indolizin-3-yl]-2-oxo-acetamide]
< 1	< 1	< 1	< 1	< 1	< 1	Cc1cc(C)nc(N(C)CCOc2ccc(NC(=O)C(=O)c3c(-c4ccccc4)cc4ccccn34)cc2)c1 [Example 64, N-(4-{2-[(4,6-Dimethyl-pyridin-2-yl)-methyl-amino]-ethoxy}-phenyl)-2-oxo-2-(2-phenyl-indolizin-3-yl)-acetamide]
< 1	< 1	< 1	< 1	< 1	< 1	Cc1cc(C)nc(N2CCN(c3ccc(NC(=O)C(=O)c4c(C5CCOCC5)cc5ccccn45)cc3)CC2)c1 [Example 66, N-{4-[4-(4,6-Dimethyl-pyridin-2-yl)-piperazin-1-yl]-phenyl}-2-oxo-2-[2-(tetrahydro-pyran-4-yl)-indolizin-3-yl]-acetamide]
< 1	< 1	< 1	< 1	< 1	< 1	Cc1cc(C)nc(NCCN(C)c2ccc(NC(=O)C(=O)c3c(-c4ccccc4)cc4ccccn34)cc2)c1 [Example 69, N-(4-{[2-(4,6-dimethyl-pyridin-2-ylamino)-ethyl]-methyl-amino}-phenyl)-2-oxo-2-(2-phenyl-indolizin-3-yl)-acetamide]
